Data: patent US20230096602A1, “TETRAHYDROCYCLOPENTA[B]INDOLE COMPOUNDS FOR TREATMENT OF RENAL DISEASE” (Eirgen Pharma Ltd., priority 2020, published 2023)

Key:
[1] = tested on: orchidectomized (ORX) rats; experiment: Testosterone induced prostate and seminal vesicle growth in delayed ORX rat model; type: in vivo; details: for seminal vesicle wet weights Abs(Dif)-LSD / prostate weights Abs(Dif)-LSD: Dunnett
Excerpt: (§1) Orchidectomized (ORX) and sham-operated Wistar male rats were used (orchidectomized at 8 weeks of age and allowed to waste for 4 weeks). […] Rats were randomized and placed into treatment groups (n=6) based on body weight. Route of administration for all groups except testosterone enanthate (TE was given sub-cutaneously) was oral. At the end of 2 weeks of daily rats were euthanized, weighed & tissue harvested. Levator ani, prostates, and seminal vesicles were collected from each animal. Results are plotted as means±SE.

ER, GR, PR MR = experiment: Binding to other nuclear hormone receptors; details: selectivity
[2] = Human PK, single and repeated doses; type: in vivo
Excerpt: The human pharmacokinetics (PK) of OPK-88004 was investigated following single and repeated doses. Following tmax, OPK-88004 concentrations appear to decline in a biexponential fashion characterized by a short distribution phase and a long terminal phase. Exposure appears to increase approximately dose proportionally in the clinical dosing range. Steady state was achieved within 28 days of dosing. […] These therapeutic benefits of more controlled exposure may result in improved LBM and physical/muscle strength preservation, physical function improvement and muscle wasting prevention. OPK-88004 bioexponential PK profile is important for the optimization of side effect benefit/risk ratio in special populations including dialysis patients.

rat uterus = experiment: Rat uterine risk; type: in vivo
LnCAP cells = experiment: LnCAP gene expression; type: cell-based, human; details: CLUSTERIN
dog prostate = experiment: Dog toxicology: prostate weight and atrophy; type: in vivo
healthy subjects [3] = experiment: Study GPBA QTcF concentration-response analysis; type: in vivo, human; details: concentrations found with doses of 250 mg or greater
Experimental: At TT701 concentrations found with doses of 250 mg or greater, the mean QTcF prolongation was greater than 10 msec. The risk for clinically significant QT prolongation at doses <250 mg can be excluded.

clinical study subjects = experiment: Clinical safety assessment across studies; type: in vivo, human; details: phase 2 study
[4] = Margin of safety (AUC), dog; type: in vivo
healthy subjects [5] = experiment: Study GPBC multiple-dose 28 days; type: in vivo, human; details: 1 mg to 75 mg daily dose for 28 days
[6] = tested on: orchidectomized (ORX) rats; experiment: Bone effects in osteopenic ORX rat model; details: in vivo
[7] = tested on: orchidectomized (ORX) rats; experiment: Levator ani muscle in delayed ORX rat model; type: in vivo; details: for levator ani W/BW Mean: delayed ORX rat
Excerpt: Results are plotted as means±SE.
Following the androgen deficiency in the ORX model, the Levator ani- and bulbocavernous muscle weights decreased in size.

[8] = tested on: orchidectomized (ORX) rats; experiment: Prostate and seminal vesicle weight in ORX rat model
Excerpt: as §1

[9] = tested on: male subjects with LUTS secondary to BPH; experiment: Study SAR-202 phase 2, 16 weeks; type: in vivo, human
healthy subjects [10] = details: healthy volunteers, any time point or dose; data of WO 2016040234; cited from earlier work
[11] = Margin of safety (AUC), cat as printed; type: in vivo; details: cat (so in the source)
[12] = tested on: patients with ED who had an incomplete response to tadalafil; experiment: Study GPEC phase 2, 12 weeks; type: in vivo, human; details: for Change in Fat Mass (%) (week 12) / Change in Lean Body Mass (%) (week 12): 5 mg
Excerpt: The Phase 2 Study for ED also included exploratory measures for lower extremity muscle strength and power, LBM and fat mass.

[13] = tested on: patients with androgen deficiency; experiment: Clinical studies in patients with androgen deficiency; type: in vivo, human; details: any dose level (up to 75 mg doses)
Excerpt: The exact effect of this decrease in testosterone levels on androgen related anabolic and prostate effects is not known, but may be dependent on the base levels of testosterone.

[14] = ORX + TE, 1 mg/kg/d + Example 1, 3 mg/kg/d vs ORX + TE
[15] = ORX + TE, 1 mg/kg/d + Example 1, 10 mg/kg/d vs ORX + TE
[16] = ORX + TE, 1 mg/kg/d + Example 1, 30 mg/kg/d vs ORX + TE
[17] = baseline testosterone <340 ng/dL
[18] = baseline testosterone ≥340 ng/dL

CCCCCCC(=O)O[C@H]1CC[C@H]2[C@@H]3CCC4=CC(=O)CC[C@]4(C)[C@H]3CC[C@]12C [Testosterone Enanthate, reference compound]
prostate weight and seminal vesical weight ([1]; orchidectomized rats, 1 mg/k/d alone, 2 weeks): increase

CC(C)OC(=O)N[C@H]1Cc2c(n(Cc3ccccn3)c3ccc(C#N)cc23)C1 [compound of Formula II, (S)-(7-cyano-4-pyridin-2-ylmethyl-1,2,3,4-tetrahydro-cyclopenta[b]indol-2-yl)-carbamic acid isopropyl ester]
binding affinity for hAR compared to other nuclear hormone receptors (ER, GR, PR MR): > 500 fold | Accumulation with multiple dosing ([2]; in vivo): up to 2.5 fold | time to steady state ([2]; repeated dosing): ≤ 28 days | seminal vesicle wet weights Abs(Dif)-LSD ([1]; ORX + Example 1, 10 mg/kg/d (no TE) vs ORX + TE): 1.411 | prostate weights Abs(Dif)-LSD [1, 14]: −0.11 | seminal vesicle wet weights Abs(Dif)-LSD [1, 14]: −0.34 | prostate weights Abs(Dif)-LSD [1, 15]: 0.036 | seminal vesicle wet weights Abs(Dif)-LSD [1, 15]: 0.078 | prostate weights Abs(Dif)-LSD [1, 16]: 0.025 | seminal vesicle wet weights Abs(Dif)-LSD [1, 16]: 0.536 | prostate weight and seminal vesical weights normalized to body weight ([1]; TE 1 mg/kg/d + 3, 10 and 30 mg/kg/d, 2 weeks, compared to TE alone): decreasing | Rat uterine risk (rat uterus): 20 mpk | EC50 (LnCAP cells): > 100 nM | decreases of prostate weight (dog prostate; dogs, by 3 months (so in the source)): 60-75% | progressive decrease in prostate size (dog prostate; normal dogs, six-month treatment period): 60% | mean QTcF prolongation (healthy subjects [3]): greater than 10 msec | transient abnormal AST or ALT level (clinical study subjects; one subject): > 3 ×ULN | transient abnormal AST or ALT level (clinical study subjects; two subjects): > 2 ×ULN | MOS (AUC) [4]: 28 X | PSA test, effect on the prostate (healthy subjects [5]): neutral to negative effect | Bone Eff (BM) [6]: 2 mpk | levator ani W/BW Mean ([7]; 8 weeks, dose 1): 0.2749 mg/g | levator ani W/BW Mean ([7]; 8 weeks, dose 3): 0.2575 mg/g | levator ani W/BW Mean ([7]; 8 weeks, dose 10): 0.3237 mg/g | levator ani W/BW Mean ([7]; 8 weeks, dose 20): 0.325 mg/g | Muscle LA ED mg/kg ([7]; rat): 3 mpk | prostate or seminal vesical weights ([8]; delayed ORX rats, 2 or 8 weeks, increasing doses up to 20-30 mg/kg): no effect | changes in the prostate ([8]; orchidectomized rats, 30 mg/kg, highest dose examined): did not induce changes | Rat SV/Prost risk mgs/kg ([8]; rat): >30 mpk | Change in Fat mass (kg) (week 16) ([9]; 15 mg, 16 weeks): -1.47 kg | Change in Fat mass (kg) (week 16) ([9]; 25 mg, 16 weeks): -1.49 kg | Change in Lean Body Mass (kg) (week 16) ([9]; 25 mg, 16 weeks, listed as OPK-88008): 1.96 kg | Change in Prostate Specific Antigen (week 16 to baseline) ([9]; 25 mg, listed as OPK-88008): −15.44 (p = 0.006) | prostate specific antigen (PSA) levels, changes from baseline vs placebo (healthy subjects [10]): no significant changes | MOS (AUC) [11]: 71 X | Change in Fat Mass (%) (week 12) [12, 17]: −1.85% | Change in Lean Body Mass (%) (week 12) [12, 17]: 1.60% | Change in Fat Mass (%) (week 12) [12, 18]: −0.95% | Change in Lean Body Mass (%) (week 12) [12, 18]: 0.88% | Hematocrit ([12]; 12 weeks (FIG. 11)): no change | PSA [13]: No increases

B1: PTH: PTH 10 comparator group in the delayed ORX rat model, Table 7 (peptide, UniProt P01270 32-115, looked up)
Parathyroid hormone: SVSEIQLMHNLGKHLNSMERVEWLRKKLQDVHNFVALGAPLAPRDAGSQRPRKKEDNVLVESHEKSLGEADKADVNVLTKAKSQ
modifications: Parathyroid hormone
levator ani W/BW Mean ([7]; PTH 10 (head: ug/kg/d)): 0.1665 mg/g
